According to patent US20150148377A1, “Quinoline Derivatives” (NOVARTIS AG, priority 2011, published 2015):

System: CD86 on rat B cells
Assay: Rat B cell activation in whole blood (CD86 upregulation after anti-IgM and IL-4)
Type: cell-based
Conditions: anti-IgM + rIL-4 stimulation, CD86 on CD45RA+ B cells, read-out: RWB/IC50 CD86
Procedure: PI3Kδ has been recognized to modulate B cell function when cells are stimulated through the B cell receptor (BCR) (Okkenhaug et al. Science 297:1031 (2002). For assessing the inhibitory property of compounds on B cell activation, the upregulation of activation markers CD86 on rat B cells derived from whole blood is measured after stimulation with anti-IgM and recombinant IL-4. The CD86 molecule (also known as B7-2) is primarily expressed on antigen-presenting cells, including B cells. Resting B cells express CD86 at low levels, but upregulate it following stimulation of e.g. the BCR or IL-4 receptor. CD86 on a B cell interacts with CD28 on T cells. This interaction is required for optimal T cell activation and for the generation of an optimal IgG1 response (Carreno et al. Annu Rev Immunol. 20:29 (2002)).
Whole blood was collected from the abdominal aorta adult male Lewis rats (LEW/HanHsd) oby using a 10 ml syringe with hypodermic needle pre-coated with sodium heparin. Blood was transferred into 50 ml Falcon tubes and the anticoagulant concentration was adjusted to 100 U/ml.
For assessment of the in vitro effects of immunosuppressive drugs, heparinized blood was prediluted to 50% with medium. As medium served DMEM high glucose (Animed cat#1-26F01-I) supplemented with 100 U/ml penicillin, […], 2 mM L-glutamin, 50 mg/ml dextran 40 and 5% fetal calf serum (FCS, Fetaclone I, Gibco #10270-106). Then, 190 μl prediluted blood was spiked with 10 μl of pre-diluted test compound in 96 well U-bottomed microtiter plates (Nunc) resulting in a 3-fold serial dilution with a concentration range from 20 to 0.0003 μM. Control wells were pretreated with DMSO to obtain a final concentration of 0.5% DMSO. Cultures were set up in duplicates, mixed well by agitation on a plate shaker (Heidolph Titramax 101; 30 sec, speed 900), pipetting up and down and agitated on the plate shaker again. Cultures were incubated at 37° C., 5% CO2 for 1 hr. Then, 20 μl of polyclonal goat anti-rat IgM Ab (Serotec, cat#302001) and 10 μl of diluted recombinant rIL-4 (Immunotools #340085) were added to obtain final concentrations of 30 μg/ml and 5 ng/ml, respectively. Plates were mixed by agitation on a plate shaker as above and incubated for 24 hrs at 37° C., 5% CO2.
After incubation, 15 μl of a 25 mM EDTA solution was added per well and shaken for 15 min to detach adherent cells. For analysis of surface activation markers, samples were then stained with PE-Cy5-labeled anti-ratCD45RA (BD cat#557015) to allow gating on B cells in FACS analysis. In addition, samples were stained with PE-labeled anti-rat CD86 (BD cat#551396). All staining procedures were performed at RT for 30 min in the dark. After incubation, samples were transferred to 96-deep well V-bottomed microtiter plates (Corning #396096) containing 2 ml/well of BD Lysing Solution (BD #349202). After lysis of erythrocytes samples were washed with 2 ml of CeIIWASH (BD #349524). Data was acquired on an LSRII or FACScalibur flow cytometer (BD Biosciences) using Cellquest Plus or DIVA (version 6.1.1) software, respectively. Lymphocytes were gated in the FSC/SSC dot blot according to size and granularity and further analyzed for expression of CD45RA and activation markers. Data were calculated from dot blots or histograms as percentage of cells positively stained for activation markers within the CD45RA+ population.
The percentage inhibition of B cell activation after exposure to drug was calculated by the following formula: […]
ORIGIN 7 software (Origin Lab Corporation, Northampton, Mass.) was used for non-linear regression curve fitting. The drug concentration resulting in 50% inhibition (IC50) was obtained by fitting the Hill equation to inhibition data.

COc1ncc(-c2ccnc3ccc(O[C@H]4CCN(C(=O)C5CCS(=O)(=O)CC5)C4)cc23)cc1Cl [Example A1, {(S)-3-[4-(5-Chloro-6-methoxy-pyridin-3-yl)-quinolin-6-yloxy]-pyrrolidin-1-yl}-(1,1-dioxo-hexahydro-1lambda*6*-thiopyran-4-yl)-methanone] was tested. Which IC50 did it give?
The IC50 was 0.073 µM.

For COc1ncc(-c2ccnc3ccc(O[C@H]4CCN(C(=O)C5CCS(=O)(=O)CC5)C4)cc23)cc1C(F)F [Example A6, {(S)-3-[4-(5-Difluoromethyl-6-methoxy-pyridin-3-yl)-quinolin-6-yloxy]-pyrrolidin-1-yl}-(1,1-dioxo-hexahydro-1lambda*6*-thiopyran-4-yl)-methanone], which IC50 is on record?
Its IC50 is 0.043 µM.

Which IC50 does the source give for COc1ncc(-c2ccnc3ccc(O[C@H]4CCN(C(=O)[C@@H]5CCN(C(C)=O)C5)C4)cc23)cc1C [Example A10, 1-((R)-3-{(S)-3-[4-(6-Methoxy-5-methyl-pyridin-3-yl)-quinolin-6-yloxy]-pyrrolidine-1-carbonyl}-pyrrolidin-1-yl)-ethanone] here?
Its IC50 is 0.059 µM.

Which IC50 does the source give for COc1ncc(-c2ccnc3ccc(O[C@H]4CCN(C(=O)C5CCS(=O)(=O)CC5)C4)cc23)cc1C [Example A15, (1,1-Dioxo-hexahydro-1lambda*6*-thiopyran-4-yl)-{(S)-3-[4-(6-methoxy-5-methyl-pyridin-3-yl)-quinolin-6-yloxy]-pyrrolidin-1-yl}-methanone] here?
Its IC50 is 0.101 µM.

How did the IC50 turn out when COc1ncc(-c2ccnc3ccc(O[C@H]4CCN(C(=O)[C@@H]5CCN(C(C)=O)C5)C4)cc23)cc1C(F)F [Example A24, 1-((R)-3-{(S)-3-[4-(5-Difluoromethyl-6-methoxy-pyridin-3-yl)-quinolin-6-yloxy]-pyrrolidine-1-carbonyl}-pyrrolidin-1-yl)-ethanone] was run?
The IC50 was 0.047 µM.

With CCC(=O)N1CC[C@H](Oc2ccc3nccc(-c4cnc(S(C)(=O)=O)c(C)c4)c3c2)C1 [Example A25, 1-{(S)-3-[4-(6-Methanesulfonyl-5-methyl-pyridin-3-yl)-quinolin-6-yloxy]-pyrrolidin-1-yl}-propan-1-one] as the molecule, how does the IC50 read?
Its IC50 is 0.443 µM.

How did the IC50 turn out when COc1ncc(-c2ccnc3ccc(O[C@H]4CCN(C(=O)[C@@H]5CCN(C(C)=O)C5)C4)c(C)c23)cc1C(F)F [Example B1, 1-((R)-3-{(S)-3-[4-(5-Difluoromethyl-6-methoxy-pyridin-3-yl)-5-methylquinolin-6-yloxy]-pyrrolidine-1-carbonyl}-pyrrolidin-1-yl)-ethanone] was run?
Its IC50 is 0.078 µM.

COc1ncc(-c2ccnc3ccc(O[C@H]4CCN(C(=O)C5CCS(=O)(=O)CC5)C4)c(C)c23)cc1C [Example B3, (1,1-Dioxo-hexahydro-1lambda*6*-thiopyran-4-yl)-{(S)-3-[4-(6-methoxy-5-methyl-pyridin-3-yl)-5-methyl-quinolin-6-yloxy]-pyrrolidin-1-yl}-methanone] was tested. Which IC50 did it give?
Its IC50 is 0.107 µM.

Which IC50 does the source give for COc1ncc(-c2ccnc3cc(F)c(O[C@H]4CCN(C(=O)C5CCS(=O)(=O)CC5)C4)cc23)cc1C [Example C1, (1,1-Dioxo-hexahydro-1lambda*6*-thiopyran-4-yl)-{(S)-3-[7-fluoro-4-(6-methoxy-5-methyl-pyridin-3-yl)-quinolin-6-yloxy]-pyrrolidin-1-yl}-methanone] here?
The IC50 was 0.0865 µM.

With Cc1cc(-c2ccnc3cc(F)c(O[C@H]4CCN(C(=O)C5CCOCC5)C4)cc23)cnc1S(C)(=O)=O [Example C2, {(S)-3-[7-Fluoro-4-(6-methanesulfonyl-5-methyl-pyridin-3-yl)-quinolin-6-yloxy]-pyrrolidin-1-yl}-(tetrahydro-pyran-4-yl)-methanone] as the molecule, how does the IC50 read?
The IC50 was 0.0462 µM.
